From BindingDB's records for doi:10.1021/bi00421a012 (Pennsylvania State University, 1988)

Target: T1, Carbamoyl-phosphate synthase small chain (Escherichia coli (strain K12), UniProt P0A6F1)
T1 sequence (P0A6F1 whole entry): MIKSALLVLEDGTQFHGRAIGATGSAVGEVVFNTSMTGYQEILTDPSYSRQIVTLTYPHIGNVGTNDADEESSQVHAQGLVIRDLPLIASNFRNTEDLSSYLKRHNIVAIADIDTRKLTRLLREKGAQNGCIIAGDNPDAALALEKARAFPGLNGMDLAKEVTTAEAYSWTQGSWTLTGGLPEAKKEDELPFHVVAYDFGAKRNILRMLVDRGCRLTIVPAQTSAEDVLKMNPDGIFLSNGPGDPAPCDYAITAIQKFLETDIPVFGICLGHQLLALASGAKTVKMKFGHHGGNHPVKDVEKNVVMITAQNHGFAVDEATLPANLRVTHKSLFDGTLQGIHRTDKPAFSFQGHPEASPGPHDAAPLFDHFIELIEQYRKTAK
Conditions: pH 7.5; 25 °C

Kd: 33 µM
SMILES: O=P(O)(O)OC[C@H]1O[C@@H](n2cnc3c2ncn2ccnc32)[C@H](O)[C@@H]1O [[(2R,3S,4R,5R)-3,4-dihydroxy-5-imidazo[2,1-f]purin-3-yloxolan-2-yl]methyl dihydrogen phosphate]
